Source: patent US11813306B2, “Cyclic tetramer compounds as proprotein convertase subtilisin/kexin type 9 (PCSK9) inhibitors for the treatment of metabolic disorders” (NOVARTIS AG, priority 2018, dated 2023)
Like-named read-outs stand apart in the source and are kept apart here.

Experiments:
[1] = amide bond, DCM
human PCSK9 = human PCSK9 (Homo sapiens, UniProt Q8NBP7); experiment: PCSK9 ligand binding assay (TR-FRET): interference with binding of human PCSK9 to human LDLR; settings: for IC50: Human PCSK9 Alexa Fluor 647 / Human LDLR extracellular domain-Europium Kryptate; for Max % inhibition: efficacy (Amax), 100% = 1 uM unlabeled human PCSK9, 0% = DMSO
human PCSK9, sequence (Q8NBP7 153-692): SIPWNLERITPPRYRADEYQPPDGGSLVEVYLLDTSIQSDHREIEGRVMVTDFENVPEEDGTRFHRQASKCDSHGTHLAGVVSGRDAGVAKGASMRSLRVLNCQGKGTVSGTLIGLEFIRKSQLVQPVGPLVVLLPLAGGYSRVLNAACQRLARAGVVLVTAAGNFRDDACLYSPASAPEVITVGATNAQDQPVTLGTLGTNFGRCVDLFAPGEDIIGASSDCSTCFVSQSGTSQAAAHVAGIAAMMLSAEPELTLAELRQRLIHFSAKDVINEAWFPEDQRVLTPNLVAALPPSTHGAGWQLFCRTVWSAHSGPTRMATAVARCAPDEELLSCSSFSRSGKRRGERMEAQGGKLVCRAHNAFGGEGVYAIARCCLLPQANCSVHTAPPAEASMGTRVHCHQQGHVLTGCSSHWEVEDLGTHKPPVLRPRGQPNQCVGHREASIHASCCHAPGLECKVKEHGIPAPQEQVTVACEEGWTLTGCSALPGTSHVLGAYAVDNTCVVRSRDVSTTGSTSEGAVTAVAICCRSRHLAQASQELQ
human PCSK9, sequence (Q8NBP7 31-152 partner limits assumed): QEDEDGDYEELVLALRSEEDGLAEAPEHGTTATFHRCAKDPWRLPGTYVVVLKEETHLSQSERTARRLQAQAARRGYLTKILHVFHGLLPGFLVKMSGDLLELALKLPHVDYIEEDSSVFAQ
Summary of the method: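 Read-out was TR-FRET ratio (665 nm over 615 nm, 330 nm excitation) between Alexa Fluor 647-human PCSK9 (16 nM added) and Europium Kryptate-human LDLR ectodomain (4 nM added). Compound and PCSK9 were mixed 30 min before LDLR, then incubated 2 h. Inhibition was normalised to DMSO and unlabelled-PCSK9 controls, giving IC50 and Amax.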

Structure (SMILES)	IC50 (human PCSK9)	Max % inhibition (human PCSK9)	also measured
C[C@H]1C(=O)N[C@@H](CO)C(=O)N(C)[C@H](Cc2ccc(Cl)cc2)CN(C)C(=O)[C@H]([C@H]2CCc3ccccc32)CC(=O)N1Cc1ccc(Cl)cc1Oc1ccc(-c2cnc(CN3CCCC3)n2C)cc1.Cl [Compound 86, (2S,5S,8R,12S)-1-(4-chloro-2-(4-(1-methyl-2-(pyrrolidin-1-ylmethyl)-1H-imidazol-5-yl)phenoxy)-benzyl)-8-(4-chlorobenzyl)-12-((R)-2,3-dihydro-1H-inden-1-yl)-5-(hydroxymethyl)-2,7,10-trimethyl-1,4,7,10-tetraazacyclotetradecane-3,6,11,14-tetraone hydrochloride]	0.941 nM	99.4%	ring closure, yield of all isomers ([1]; from C[C@H](NCc1ccc(Cl)cc1Oc1ccc(-c2cnc(CN3CCCC3)n2C)cc1)C(=O)N[C@@H](COC(C)(C)C)C(=O)N(C)[C@H](Cc1ccc(Cl)cc1)CN(C)C(=O)[C@@H](CC(=O)O)[C@H]1CCc2ccccc21, HATU, 1.0 mM, 40.0 °C, 29.0 h, 2 steps): 45%
C[C@H]1C(=O)N[C@@H](CO)C(=O)N(C)[C@@]2(Cc3ccc(Cl)cc3)CCCN(C2)C(=O)[C@H](Cc2cccc[n+]2[O-])CC(=O)N1Cc1ccc(Cl)cc1Oc1ccc(-c2cnc(CN(C)C)n2C)cc1	–	–	ring closure, yield of all isomers ([1]; from C[C@H](NCc1ccc(Cl)cc1Oc1ccc(-c2cnc(CN(C)C)n2C)cc1)C(=O)N[C@@H](CO)C(=O)N(C)[C@@]1(Cc2ccc(Cl)cc2)CCCN(C(=O)[C@@H](CC(=O)O)Cc2cccc[n+]2[O-])C1, HATU, 0.83 mM, 48.0 °C, 4.0 h): 100%
C[C@H]1C(=O)N2[C@@H](COC2(C)C)C(=O)N[C@@]2(Cc3ccc(Cl)cc3)CCCN(C2)C(=O)[C@H](Cc2ccccc2)CC(=O)N1Cc1ccc(Cl)cc1Oc1ccc(-c2cnc(CN(C)C)n2C)cc1	–	–	ring closure, yield of all isomers ([1]; from C[C@H](NCc1ccc(Cl)cc1Oc1ccc(-c2cnc(CN(C)C)n2C)cc1)C(=O)N1[C@H](C(=O)N[C@@]2(Cc3ccc(Cl)cc3)CCCN(C(=O)[C@@H](CC(=O)O)Cc3ccccc3)C2)COC1(C)C, HATU, 1.04 mM, 45.0 °C): 69%
C[C@H]1C(=O)N[C@@H](CO)C(=O)N[C@@]2(Cc3ccc(Cl)cc3)CCCN(C2)C(=O)[C@H](Cc2cccc[n+]2[O-])CC(=O)N1Cc1ccc(Cl)cc1Oc1ccc(-c2cnc(CN3CCCC3)n2C)cc1	–	–	ring closure, yield of all isomers ([1]; from C[C@H](NCc1ccc(Cl)cc1Oc1ccc(-c2cnc(CN3CCCC3)n2C)cc1)C(=O)N1[C@H](C(=O)N[C@@]2(Cc3ccc(Cl)cc3)CCCN(C(=O)[C@@H](CC(=O)O)Cc3cccc[n+]3[O-])C2)COC1(C)C, HATU, 1.72 mM, 48.0 °C, 19.0 h, 2 steps): 33.3%
C[C@H]1C(=O)N[C@@H](CO)C(=O)N(C)[C@@]2(Cc3ccc(Cl)cc3)CCCN(C2)C(=O)[C@H](Cc2cccc[n+]2[O-])CC(=O)N1Cc1c(F)cc(Cl)cc1Oc1ccc(-c2cnc(CN(C)C)n2C)cc1	–	–	ring closure, yield of all isomers ([1]; from C[C@H](NCc1c(F)cc(Cl)cc1Oc1ccc(-c2cnc(CN(C)C)n2C)cc1)C(=O)N[C@@H](CO)C(=O)N(C)[C@@]1(Cc2ccc(Cl)cc2)CCCN(C(=O)[C@@H](CC(=O)O)Cc2cccc[n+]2[O-])C1, HATU/HOAt/2,6-lutidine, 1.08 mM, 48.0 °C, 4.0 h): 98.8%
COC[C@@H]1NC(=O)[C@H](C)N(Cc2c(F)cc(Cl)cc2Oc2ccc(-c3cnc(CN(C(=O)OC(C)(C)C)C(C)(C)C)n3C)cc2)C(=O)C[C@@H](C2CC(F)(F)C2)C(=O)N2CCC[C@@](Cc3ccc(Cl)cc3)(C2)N(C)C1=O	–	–	ring closure, yield of all isomers ([1]; from COC[C@H](NC(=O)[C@H](C)NCc1c(F)cc(Cl)cc1Oc1ccc(-c2cnc(CN(C(=O)OC(C)(C)C)C(C)(C)C)n2C)cc1)C(=O)N(C)[C@@]1(Cc2ccc(Cl)cc2)CCCN(C(=O)[C@@H](CC(=O)O)C2CC(F)(F)C2)C1, HATU, 1.82 mM, 42.0 °C): 86%
COC[C@@H]1NC(=O)[C@H](CCN2CCOCC2)N(Cc2ccc(Cl)cc2Oc2ccc(-c3cnc(CN(C)C)n3C)cc2)C(=O)C[C@@H]([C@H]2CCc3ccccc32)C(=O)N(C)C[C@@H](Cc2ccc(Cl)cc2)N(C)C1=O.Cl [Compound 125, (2S, 5S, 8R, 12S)-1-(4-chloro-2-(4-(2-((dimethylamino)methyl)-1-methyl-1H-imidazol-5-yl)phenoxy)benzyl)-8-(4-chlorobenzyl)-12-((R)-2,3-dihydro-1H-inden-1-yl)-5-(methoxymethyl)-7,10-dimethyl-2-(2-morpholinoethyl)-1,4,7,10-tetraazacyclotetradecane-3,6,11,14-tetraone]	103 nM	92.2%	–
COC[C@@H]1NC(=O)[C@H](C)N(Cc2ccc(Cl)cc2Oc2ccc(-c3cnc(CN4CCCC4)n3C)cc2)C(=O)C[C@@H](Cc2ccccc2)C(=O)NC[C@@H](Cc2ccc(Cl)cc2)N(C)C1=O.Cl [Compound 92, (2S, 5S, 8R, 12R)-12-benzyl-1-(4-chloro-2-(4-(1-methyl-2-(pyrrolidin-1-ylmethyl)-1H-imidazol-5-yl)phenoxy)benzyl)-8-(4-chlorobenzyl)-5-(methoxymethyl)-2,7-dimethyl-1,4,7,10-tetraazacyclotetradecane-3,6,11,14-tetraone]	2.37 nM	104.1%	–

Now from value to molecule, other results behind:

IC50 (human PCSK9)	Max % inhibition (human PCSK9)	Structure (SMILES)	also measured
0.367 nM	106.6%	C[C@H]1C(=O)N[C@@H](CO)C(=O)N[C@@]2(Cc3ccc(Cl)cc3)CCCN(C2)C(=O)[C@H](CC(F)F)NC(=O)N1Cc1ccc(Cl)cc1Oc1ccc(-c2cnc(CN(C)C)n2C)cc1.Cl [Compound 58, (3S, 7S, 10S, 13R)-6-(4-chloro-2-(4-(2-((dimethylamino)methyl)-1-methyl-1H-imidazol-5-yl)phenoxy)benzyl)-13-(4-chlorobenzyl)-3-(2,2-difluoroethyl)-10-(hydroxymethyl)-7-methyl-1,4,6,9,12-pentaazabicyclo[11.3.1]heptadecane-2,5,8,11-tetraone]	–
0.572 nM	103.6%	COC[C@@H]1NC(=O)[C@H](C)N(Cc2ccc(Cl)cc2Oc2ccc(-c3cnc(CN4CC[C@H](O)C4)n3C)cc2)C(=O)C[C@@H](Cc2ccccc2)C(=O)N2CCC[C@@](Cc3ccc(Cl)cc3)(C2)NC1=O.Cl [Compound 59, (3R, 7S, 10S, 13R)-3-benzyl-6-(4-chloro-2-(4-(2-(((S)-3-hydroxypyrrolidin-1-yl)methyl)-1-methyl-1H-imidazol-5-yl)phenoxy)benzyl)-13-(4-chlorobenzyl)-10-(methoxymethyl)-7-methyl-1,6,9,12-tetraazabicyclo+11.3.1+heptadecane-2,5,8,11-tetraone]	–
0.33 nM	115.5%	C[C@H]1C(=O)N[C@@H](CO)C(=O)N[C@@]2(Cc3ccc(Cl)cc3)CCCN(C2)C(=O)[C@H](C2CC(F)(F)C2)CC(=O)N1Cc1c(F)cc(Cl)cc1Oc1ccc(-c2cnc(CN(C)C)n2C)cc1 [Compound 161, (3S, 7S, 10S, 13R)-6-(4-chloro-2-(4-(2-((dimethylamino)methyl)-1-methyl-1H-imidazol-5-yl)phenoxy)-6-fluorobenzyl)-13-(4-chlorobenzyl)-3-(3,3-difluorocyclobutyl)-10-(hydroxymethyl)-7-methyl-1,6,9,12-tetraazabicyclo[11.3.1]heptadecane-2,5,8,11-tetraone]	–
0.568 nM	112.3%	C[C@H]1C(=O)N[C@@H](CO)C(=O)N[C@@]2(Cc3ccc(Cl)cc3)CCCN(C2)C(=O)[C@H](Cc2c(F)cc(F)cc2F)CC(=O)N1Cc1ccc(Cl)cc1Oc1ccc(-c2cnc(CN(C)C)n2C)cc1 [Compound 46, (3R, 7S, 10S, 13R)-6-(4-chloro-2-(4-(2-((dimethylamino)methyl)-1-methyl-1H-imidazol-5-yl)phenoxy)benzyl)-13-(4-chlorobenzyl)-10-(hydroxymethyl)-7-methyl-3-(2,4,6-trifluorobenzyl)-1,6,9,12-tetraazabicyclo[11.3.1]heptadecane-2,5,8,11-tetraone]	–
1.73 nM	99.1%	C[C@H]1C(=O)N[C@@H](CO)C(=O)N[C@@]2(Cc3ccc(Cl)cc3)CCCN(C2)C(=O)[C@H]([C@@H]2CCc3ccccc32)CC(=O)N1Cc1ccc(Cl)cc1Oc1ccc(-c2cnc(CN3CCCC3)n2C)cc1.Cl [Compound 74, (3S, 7S, 10S, 13R)-6-(4-chloro-2-(4-(1-methyl-2-(pyrrolidin-1-ylmethyl)-1H-imidazol-5-yl)phenoxy)benzyl)-13-(4-chlorobenzyl)-3-((S)-2,3-dihydro-1H-inden-1-yl)-10-(hydroxymethyl)-7-methyl-1,6,9,12-tetraazabicyclo[11.3.1]heptadecane-2,5,8,11-tetraone]	–
